Results taken from patent US20150284331A1 (priority 2012, published 2015).

Legend:
[1] = target: T1, butyrylcholinesterase (Rattus norvegicus, UniProt Q9JKC1); experiment: inhibition of butyrylcholinesterase (rat serum); assay type: biochemical; conditions: rat serum enzyme; final concentration 4×10−5 mol/L
T1 construct: Butyrylcholinesterase: rat serum; from tissue; host or cells: rat serum
Protocol: (§1) Sample processing: All samples were formulated as 10-2 mol/L solution by using 100% DMSO. 10-2 mol/L solution was used in microdetermination. 1 μL was taken to use in single tube experiment.
(§2) Solvent control: 0.4% DMSO was used in microdetermination. The inhibition ratio of the sample was obtained wherein the effect of solvent was deducted.
Butyrylcholinesterase: rat serum

[2] = target: T2, acetylcholinesterase (Rattus norvegicus, UniProt P37136); experiment: biochemical; assay type: biochemical; conditions: rat cortex enzyme; for acetylcholinesterase inhibitory activity inhibition ratio (%): final concentration 4×10−5 mol/L; for IC50: read-out: acetylcholinesterase inhibitory activity IC50 (nmol)
T2 construct: Acetylcholinesterase: rat cortex; from tissue; host or cells: rat cortex
T2 sequence (P37136 32-614): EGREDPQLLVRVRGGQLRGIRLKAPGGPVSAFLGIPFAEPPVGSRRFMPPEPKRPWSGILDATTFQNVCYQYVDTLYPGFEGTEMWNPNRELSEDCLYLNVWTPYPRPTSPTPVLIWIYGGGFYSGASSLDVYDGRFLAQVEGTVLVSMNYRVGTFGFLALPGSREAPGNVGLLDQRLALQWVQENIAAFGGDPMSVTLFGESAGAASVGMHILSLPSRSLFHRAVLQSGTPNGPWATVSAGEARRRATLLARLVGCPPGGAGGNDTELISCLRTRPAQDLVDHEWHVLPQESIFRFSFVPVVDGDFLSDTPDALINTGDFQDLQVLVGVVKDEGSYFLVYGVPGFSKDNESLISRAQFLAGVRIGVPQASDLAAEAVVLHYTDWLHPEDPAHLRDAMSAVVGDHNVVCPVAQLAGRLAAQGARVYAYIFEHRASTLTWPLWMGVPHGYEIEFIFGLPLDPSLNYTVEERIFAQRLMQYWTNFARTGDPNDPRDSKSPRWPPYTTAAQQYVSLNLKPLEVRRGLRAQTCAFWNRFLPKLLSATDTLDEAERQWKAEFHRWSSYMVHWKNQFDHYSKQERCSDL
Protocol: as §1, §2
Acetylcholinesterase: rat cortex

T1 sequence (Q9JKC1 24-597): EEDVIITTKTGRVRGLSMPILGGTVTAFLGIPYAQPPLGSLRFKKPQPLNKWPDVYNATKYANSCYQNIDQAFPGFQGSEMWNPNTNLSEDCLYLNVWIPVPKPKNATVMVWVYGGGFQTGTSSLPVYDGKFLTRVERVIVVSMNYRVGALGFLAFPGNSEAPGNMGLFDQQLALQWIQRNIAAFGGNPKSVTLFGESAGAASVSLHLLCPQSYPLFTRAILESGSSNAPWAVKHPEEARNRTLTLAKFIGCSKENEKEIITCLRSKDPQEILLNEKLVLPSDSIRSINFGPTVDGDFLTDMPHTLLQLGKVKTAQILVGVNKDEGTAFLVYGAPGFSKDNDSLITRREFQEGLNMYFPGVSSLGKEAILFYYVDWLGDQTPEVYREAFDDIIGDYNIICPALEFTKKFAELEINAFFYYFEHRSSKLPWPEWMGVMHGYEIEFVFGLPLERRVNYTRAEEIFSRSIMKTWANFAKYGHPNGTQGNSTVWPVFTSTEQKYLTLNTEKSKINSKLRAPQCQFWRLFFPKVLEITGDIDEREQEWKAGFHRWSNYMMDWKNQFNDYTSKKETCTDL

Row | SMILES | butyrylcholinesterase inhibitory activity inhibition ratio (%) [1] [%] | acetylcholinesterase inhibitory activity inhibition ratio (%) [2] [%] | IC50 [2] [µM]
1 | COc1cc2c(cc1OC)C(=O)C(CC1(F)CCN(Cc3ccc([N+](=O)[O-])cc3)CC1)C2 (stereo not drawn) [DC1, 2-((4-fluoro-1-(4-nitrobenzyl)piperidin-4-yl)methyl)-5,6-dimethoxy-2,3-dihydro-1H-inden-1-one] | 46.68 | 72.85 | 8.78
2 | COc1cc2c(cc1OC)C(=O)C(CC1(F)CCN(Cc3ccccc3C#N)CC1)C2 (stereo not drawn) [DC3, 2-((4-((5,6-dimethoxy-1-oxo-2,3-dihydro-1H-inden-2-yl)methyl)-4-fluoropiperidin-1-yl)methyl)benzonitrile] | 36.42 | 80.04 | 
3 | COc1cc2c(cc1OC)C(=O)C(CC1(F)CCN(Cc3cc(C)cc(C)c3)CC1)C2 (stereo not drawn) [DC4, 2-((1-(3,5-dimethylbenzyl)-4-fluoropiperidin-4-yl)methyl)-5,6-dimethoxy-2,3-dihydro-1H-inden-1-one] | 72.82 | 75.65 | 
4 | COc1cc2c(cc1OC)C(=O)C(CC1(F)CCN(Cc3ccc(F)cc3)CC1)C2 (stereo not drawn) [DC5, 2-((4-fluoro-1-(4-fluorobenzyl)piperidin-4-yl)methyl)-5,6-dimethoxy-2,3-dihydro-1H-inden-1-one] | 0.00 | 82.04 | 0.00267
5 | COc1cc2c(cc1OC)C(=O)C(CC1(F)CCN(Cc3ccc(OC(F)(F)F)cc3)CC1)C2 (stereo not drawn) [DC6, 2-((4-fluoro-1-(4-(trifluoromethoxy)benzyl)piperidin-4-yl)methyl)-5,6-dimethoxy-2,3-dihydro-1H-inden-1-one] | 1.24 | 51.7 | 
6 | COc1cc2c(cc1OC)C(=O)C(CC1(F)CCN(Cc3ccc(C(C)(C)C)cc3)CC1)C2 (stereo not drawn) [DC7, 2-((1-(4-(tert-butyl)benzyl)-4-fluoropiperidin-4-yl)methyl)-5,6-dimethoxy-2,3-dihydro-1H-inden-1-one] | 8.40 | 69.06 | 
7 | COc1cc2c(cc1OC)C(=O)C(CC1(F)CCN(Cc3c(F)cccc3[N+](=O)[O-])CC1)C2 (stereo not drawn) [DC8, 2-((4-fluoro-1-(2-fluoro-6-nitrobenzyl)piperidin-4-yl)methyl)-5,6-dimethoxy-2,3-dihydro-1H-inden-1-one] | 49.48 | 76.05 | 27.1
8 | COc1cc2c(cc1OC)C(=O)C(CC1(F)CCN(Cc3cc4c(cc3Br)OCO4)CC1)C2 (stereo not drawn) [DC9, 2-((1-((6-bromobenzo[d][1,3]dioxol-5-yl)methyl)-4-fluoropiperidin-4-yl)methyl)-5,6-dimethoxy-2,3-dihydro-1H-inden-1-one] | 33.79 | 97.34 | 
9 | COc1cc2c(cc1OC)C(=O)C(CC1(F)CCN(Cc3ccc(F)cc3F)CC1)C2 (stereo not drawn) [DC10, 2-((1-(2,4-difluorobenzyl)-4-fluoropiperidin-4-yl)methyl)-5,6-dimethoxy-2,3-dihydro-1H-inden-1-one] | 83.11 | 97.34 | 
10 | COc1cc2c(cc1OC)C(=O)C(CC1(F)CCN(Cc3cccc(Br)c3)CC1)C2 (stereo not drawn) [DC11, 2-((1-(3-bromobenzyl)-4-fluoropiperidin-4-yl)methyl)-5,6-dimethoxy-2,3-dihydro-1H-inden-1-one] | 12.76 | 84.63 | 0.00433
11 | COc1cc2c(cc1OC)C(=O)C(CC1(F)CCN(Cc3ccc(F)c(F)c3F)CC1)C2 (stereo not drawn) [DC12, 2-((4-fluoro-1-(2,3,4-trifluorobenzyl)piperidin-4-yl)methyl)-5,6-dimethoxy-2,3-dihydro-1H-inden-1-one] | 38.15 | 98.08 | 
12 | COc1cc2c(cc1OC)C(=O)C(CC1(F)CCN(Cc3cccc(C#N)c3)CC1)C2 (stereo not drawn) [DC13, 3-((4-((5,6-dimethoxy-1-oxo-2,3-dihydro-1H-inden-2-yl)methyl)-4-fluoropiperidin-1-yl)methyl)benzonitrile] | 29.25 | 97.19 | 
13 | COc1cc2c(cc1OC)C(=O)C(CC1(F)CCN(Cc3ccccc3Br)CC1)C2 (stereo not drawn) [DC14, 2-((1-(2-bromobenzyl)-4-fluoropiperidin-4-yl)methyl)-5,6-dimethoxy-2,3-dihydro-1H-inden-1-one] | 54.77 | 85.03 | 0.004
14 | COc1cc2c(cc1OC)C(=O)C(CC1(F)CCN(Cc3ccc(Br)cc3F)CC1)C2 (stereo not drawn) [DC15, 2-((1-(4-bromo-2-fluorobenzyl)-4-fluoropiperidin-4-yl)methyl)-5,6-dimethoxy-2,3-dihydro-1H-inden-1-one] | 0.31 | 72.65 | 7.04
15 | COc1cc2c(cc1OC)C(=O)C(CC1(F)CCN(Cc3ccc(C(F)(F)F)cc3)CC1)C2 (stereo not drawn) [DC16, 2-((4-fluoro-1-(4-(trifluoromethyl)benzyl)piperidin-4-yl)methyl)-5,6-dimethoxy-2,3-dihydro-1H-inden-1-one] | 0.00 | 75.25 | 
16 | COc1cc2c(cc1OC)C(=O)C(CC1(F)CCN(Cc3c(F)c(F)c(F)c(F)c3F)CC1)C2 (stereo not drawn) [DC28, 2-((4-fluoro-1-((perfluorophenyl)methyl)piperidin-4-yl)methyl)-5,6-dimethoxy-2,3-dihydro-1H-inden-1-one] |  | 96.5 | 
17 | COc1cc2c(cc1OC)C(=O)C(CC1(F)CC3CCC(C1)N3Cc1ccc([N+](=O)[O-])cc1)C2 (stereo not drawn) [DC41, 2-((3-fluoro-8-(4-nitrobenzyl)-8-azabicyclo[3.2.1]octan-3-yl)methyl)-5,6-dimethoxy-2,3-dihydro-1H-inden-1-one] |  | 56.8 | 
18 | COc1cc2c(cc1OC)C(=O)C(CC1(F)CC3CCC(C1)N3Cc1ccccc1C#N)C2 (stereo not drawn) [DC43, 2-((3-((5,6-dimethoxy-1-oxo-2,3-dihydro-1H-inden-2-yl)methyl)-3-fluoro-8-azabicyclo[3.2.1]octan-8-yl)methyl)benzonitrile] |  | 88.9 | 
19 | COc1cc2c(cc1OC)C(=O)C(CC1(F)CC3CCC(C1)N3Cc1c(F)cccc1[N+](=O)[O-])C2 (stereo not drawn) [DC48, 2-((3-fluoro-8-(2-fluoro-6-nitrobenzyl)-8-azabicyclo[3.2.1]octan-3-yl)methyl)-5,6-dimethoxy-2,3-dihydro-1H-inden-1-one] |  | 77.3 | 
20 | COc1cc2c(cc1OC)C(=O)C(CC1(F)CC3CCC(C1)N3Cc1ccccc1Br)C2 (stereo not drawn) [DC54, 2-((8-(2-bromobenzyl)-3-fluoro-8-azabicyclo[3.2.1]octan-3-yl)methyl)-5,6-dimethoxy-2,3-dihydro-1H-inden-1-one] |  | 90.3 | 
21 | COc1cc2c(cc1OC)C(=O)C(CC1(F)CC3CCC(C1)N3Cc1ccc(-c3ccccc3)cc1)C2 (stereo not drawn) [DC76, 2-((8-([1,1′-biphenyl]-4-ylmethyl)-3-fluoro-8-azabicyclo[3.2.1]octan-3-yl)methyl)-5,6-dimethoxy-2,3-dihydro-1H-inden-1-one] |  | 85.3 | 
